# Results from the supplement of paper PMC10331698.
# ± gives the standard deviation of the averaged measurements.
# Columns and labels:
# Experiment in all cases: level (log10 ratio to DMSO vehicle control); higher = higher biomarker level / cell amount than vehicle control
# [1] = compound: FC(F)(F)COC(OCC(F)(F)F)OCC(F)(F)F [tris(Trifluoroethoxy)methane]; conditions: in DMSO
# Method: (§1)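 BioMAP Diversity Plus panel of 12 human primary cell co-culture systems (3C, 4H, LPS, SAg, BT, BF4T, BE3C, CASM3C, HDF3CGF, KF3CT, MyoF, Mphg). Compounds were added 1 h before stimulation and left for 24 h (MyoF 48 h; BT 72 h for soluble read-outs or 6 d for IgG). Biomarkers were read by ELISA, cytotoxicity by SRB, PBMC viability and proliferation by Alamar Blue. Each well value was divided by the mean of 8 DMSO control wells on the same plate and log10 transformed; duplicate blinded samples were tested at 4 concentrations.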
# [2] = compound: FC(F)(I)C(F)(F)C(F)(F)C(F)(F)C(F)(F)C(F)(F)I [1,6-Diiodoperfluorohexane]; conditions: 6700 nM; in DMSO
# Method: as §1
# [3] = compound: C=CC(=O)OCC(F)(F)C(F)(F)C(F)(F)C(F)(F)C(F)(F)C(F)(F)C(F)(F)C(F)F [1H,1H,9H-Perfluorononyl acrylate]; conditions: in DMSO
# Method: as §1
# [4] = compound: OCCCC(F)(F)C(F)(F)C(F)(F)C(F)(F)C(F)(F)C(F)(F)C(F)(F)C(F)(F)F [3-(Perfluorooctyl)propanol]; conditions: 6700 nM; in DMSO
# Method: as §1
# [5] = compound: OCCC(F)(F)C(F)(F)C(F)(F)C(F)(F)C(F)(F)C(F)(F)C(F)(F)C(F)(F)F [8:2 Fluorotelomer alcohol]; conditions: 6700 nM; in DMSO
# Method: as §1
# Tetrafluorosuccinic acid = compound: O=C(O)C(F)(F)C(F)(F)C(=O)O [Tetrafluorosuccinic acid]; conditions: in DMSO
# Method: as §1
# [6] = compound: O=P(O)(O)CCC(F)(F)C(F)(F)C(F)(F)C(F)(F)C(F)(F)C(F)(F)F [2-(Perfluorohexyl)ethylphosphonic acid]; conditions: in DMSO
# Method: as §1
# [7] = compound: C=C(C)C(=O)OCC(F)(F)C(F)(F)C(F)(F)F [2,2,3,3,4,4,4-Heptafluorobutyl methacrylate]; conditions: in DMSO
# Method: as §1
Test System,level (log10) ([1]; 6700 nM),level (log10) ([1]; 20000 nM),level (log10) ([1]; 60000 nM),level (log10) [2],level (log10) ([3]; 6700 nM),level (log10) ([3]; 20000 nM),level (log10) ([3]; 60000 nM),level (log10) [4],level (log10) [5],level (log10) (Tetrafluorosuccinic acid; 6700 nM),level (log10) (Tetrafluorosuccinic acid; 20000 nM),level (log10) (Tetrafluorosuccinic acid; 60000 nM),level (log10) ([6]; 6700 nM),level (log10) ([6]; 20000 nM),level (log10) ([6]; 60000 nM),level (log10) ([7]; 6700 nM),level (log10) ([7]; 20000 nM),level (log10) ([7]; 60000 nM)
lMphg:CD62E/E-Selectin,0.023 ± 0.082,-0.0245 ± 0.076,-0.0085 ± 0.076,0.033,0 ± 0.0099,-0.004 ± 0.02,-0.01 ± 0.017,-0.0425 ± 0.066,0.024 ± 0.023,-0.0075 ± 0.032,0.0085 ± 0.011,0.032 ± 0.013,-0.015 ± 0.013,-0.017 ± 0.0042,0.075 ± 0.0085,-0.0085 ± 0.015,-0.0005 ± 0.013,-0.031 ± 0.0028
lMphg:CD69,0.0225 ± 0.05,0.005 ± 0.035,0.0095 ± 0.042,-0.01,-0.048 ± 0.0028,-0.0265 ± 0.025,-0.0255 ± 0.03,0.018 ± 0.04,-0.086 ± 0.035,-0.048 ± 0.021,0.0125 ± 0.047,0.059 ± 0.073,-0.045 ± 0.042,-0.0285 ± 0.023,0.0175 ± 0.053,-0.0035 ± 0.044,-0.0335 ± 0.025,-0.0615 ± 0.047
lMphg:CD106/VCAM-1,0.0065 ± 0.0035,0.023 ± 0.0099,-0.0145 ± 0.0092,-0.025,-0.03,-0.029 ± 0.0099,-0.0405 ± 0.0092,0.001 ± 0.0099,0.0055 ± 0.012,-0.017 ± 0.0028,0.0085 ± 0.0021,0.018 ± 0.03,-0.001 ± 0.0028,0.006 ± 0.016,-0.002 ± 0.038,0.0005 ± 0.0021,0.005 ± 0.04,0.0115 ± 0.026
lMphg:CXCL8/IL-8,-0.0095 ± 0.016,-0.018 ± 0.0042,-0.007 ± 0.044,0.018,0.014 ± 0.02,0.0025 ± 0.0064,0.038 ± 0.014,0.0655 ± 0.015,0.076 ± 0.024,-0.0205 ± 0.0064,-0.025 ± 0.021,-0.0175 ± 0.023,-0.008 ± 0.0028,-0.0315 ± 0.033,0.0385 ± 0.026,0.037 ± 0.038,0.026 ± 0.021,0.027 ± 0.038
lMphg:IL-1alpha,-0.031 ± 0.014,-0.03 ± 0.0028,-0.006 ± 0.03,0.024,0.006 ± 0.038,-0.0025 ± 0.054,0.0195 ± 0.063,-0.0015 ± 0.03,-0.0045 ± 0.025,-0.016 ± 0.0057,-0.015 ± 0.025,-0.0035 ± 0.03,-0.0265 ± 0.021,-0.029 ± 0.024,0.0075 ± 0.084,0.01 ± 0.0057,0.0245 ± 0.012,0.03 ± 0.034
lMphg:M-CSF,-0.012 ± 0.0071,-0.025 ± 0.035,-0.0135 ± 0.029,-0.023,0.0155 ± 0.04,-0.0225 ± 0.018,-0.042 ± 0.025,-0.0255 ± 0.00071,-0.0345 ± 0.021,-0.005 ± 0.018,-0.0105 ± 0.0092,0.019 ± 0.03,-0.0175 ± 0.016,-0.0335 ± 0.015,-0.0075 ± 0.016,-0.011 ± 0.0085,-0.02 ± 0.02,-0.021 ± 0.0071
lMphg:SRB,-0.0035 ± 0.011,-0.0025 ± 0.0021,0.0045 ± 0.023,-0.028,-0.003 ± 0.0014,-0.005 ± 0.0042,-0.005 ± 0.0057,0.0045 ± 0.0078,-0.02,-0.008 ± 0.0014,0.001,0.001 ± 0.013,-0.006 ± 0.0071,-0.0025 ± 0.013,0.009 ± 0.017,-0.0075 ± 0.0092,-0.004 ± 0.0057,0.0005 ± 0.021
lMphg:SRB-Mphg,-0.026 ± 0.013,-0.038 ± 0.044,-0.008 ± 0.027,-0.023,-0.1115 ± 0.00071,-0.082 ± 0.11,0.0085 ± 0.097,-0.049 ± 0.072,-0.015 ± 0.03,-0.0035 ± 0.015,-0.0075 ± 0.013,-0.013 ± 0.016,-0.029 ± 0.023,-0.0255 ± 0.026,-0.0125 ± 0.032,0.003,-0.0115 ± 0.016,0.0155 ± 0.016
lMphg:sIL-10,-0.045 ± 0.075,-0.061 ± 0.037,-0.0855 ± 0.091,-0.219,-0.0335 ± 0.015,0.0005 ± 0.0092,0.029 ± 0.033,-0.027 ± 0.013,-0.17 ± 0.013,-0.0085 ± 0.016,-0.0265 ± 0.097,0.0415 ± 0.11,-0.0015 ± 0.083,-0.091 ± 0.0014,-0.0775 ± 0.09,-0.0245 ± 0.028,-0.0155 ± 0.005,-0.0165 ± 0.0035
